Literature values as cited in patent US20210290563A1, “COMPOSITIONS AND METHODS FOR TREATING NEUROP[…]” (BIONICHE GLOBAL DEVELOPMENT, LLC, priority 2017, published 2021).
Read-outs that look alike come from different tables or passages of the source.

Legend:
[1] = not given; remark: listed apart in the source

Compound	bioavailability estimates (buccal administration) [%]	bioavailability estimates (intramuscular administration) [%]	bioavailability estimates (intranasal administration)	bioavailability estimates (intravenous administration) [%]	bioavailability estimates (oral administration)	bioavailability estimates (rectal administration) [%]	bioavailability estimates (transdermal administration) [%]	solubility in water [1]
CC(C)c1cccc(C(C)C)c1O [Propofol, 2,6-diisopropylphenol]	~50	~93	25-50%	~100	13-27%	~25	~10	only sparingly soluble in water
CC(C)c1cccc(C(C)C)c1OCOP(=O)(O)O [Fospropofol disodium]								water-soluble
